Test results from ChEMBL document CHEMBL1151669, “Caparratriene, an active sesquiterpene hydrocarbon from Ocotea caparrapi” (J Nat Prod, 1996).
The source made the active and inactive calls. No cut-off for these calls is given here.

Key:
CCRF-CEM [1] = assay: Growth inhibition of human CEM cells incubated in presence of light after 24 hrs by trypan blue staining; assay type: functional, cell-based
CCRF-CEM [2] = assay: Growth inhibition of human CEM cells after 24 hrs by trypan blue staining; assay type: functional, cell-based

IC50 (CCRF-CEM [2]): 3 µM
Structure (SMILES): C/C=C(C)/C=C/C[C@H](C)CCC=C(C)C [CAPARRATRIENE]
Activity (CCRF-CEM [1]): Active
